According to patent publication US11385234B2, “Methods and systems for detecting an analyte or classifying a sample” (Commonwealth Scientific and Industrial Research Organisation, priority 2012, dated 2022):
Where “and” joins values, the source holds several entries; their conditions need not be identical. Equal values may be shown once.

Key:
GFP^2-RG-RLuc biosensor = experiment: Hybrid BRET (BRET^H) thrombin cleavage assay, microplate; format: biochemical; conditions: 54 nM thrombin, 90 minutes, 30° C.; 1 μM fusion protein, 5 μM native coelenterazine
Text: A combination of BRET^1 and BRET^2 techniques was used and referred to herein as hybrid BRET. Specifically, RLuc with native coelenterazine substrate was used as the bioluminescent donor and GFP^2 as the acceptor molecule. The donor and acceptor were linked by a peptide sequence containing the thrombin cleavage site ([…]↓ GSLQ (RG)) (GFP^2-RG-RLuc) and expressed in E. coli.
GFP^2-RG-RLuc biosensor was expressed and purified as reported previously (Dacres et al. 2009a). The purified fusion protein was in thrombin cleavage buffer (10 mM Tris (pH 8.0), 100 mM NaCl, 1 mM EDTA). The final concentration of the native coelenterazine substrate (Biosynth) used for microfluidic based assays was 58.6 μM and 5 μM for plate-reader based assays. 1 unit (U)/μl thrombin protease (Amersham Biosciences) solution was prepared in 1× phosphate buffer saline (PBS).
Simultaneous dual emission hybrid BRET measurements were carried out both in a microplate using a SpectraMax M2 spectrofluorimeter (Molecular Devices) and in the microfluidics apparatus described below. Spectral scans of BRET constructs were recorded using the luminescence scan mode between 400 and 650 nm on addition of 5 μM native coelenterazine substrate to 1 μM of biosensor. […]
Using the microplate spectrometer, hybrid BRET ratios were calculated as the ratio of bioluminescence emissions measured at 500 nm and 470 nm. […]

[1] = tested on: GFP^2-RG-RLuc thrombin sensor; experiment: BRET^2 thrombin sensor in microfluidic chip with optical detection chamber; format: biochemical
Text: In a BRET^2 system, Renilla luciferase (RLuc) with coelenterazine 400a (CLZ400A) substrate was used as the photon donor and GFP^2 was used as the acceptor molecule. As the luminescence of BRET^2 is 100-fold smaller than that of the BRET^1.5, the BRET^2 reaction requires efficient mixing at optimal temperature, detection chamber size, flow rates and concentrations to produce highest bioluminescence signal. Thus, this system is used to evaluate different mixing mechanisms (FIG. 8), reaction chamber designs and reaction conditions.
PDMS chips with a Y-shaped microchannel with three mixing elements (FIG. 8), with a rectangular cross section in the microchannels (200 μm in width and 30 μm in height) was used to monitor BRET^2 assays. The detection chambers with different diameter and height were located at the end of the microchannels. The emitting bioluminescence was collected by a multimode optical fiber located underneath the detection chamber. The emissions will be split by dichroic block and going through two band pass filters corresponding to emission band of the donor (430 nm-455 nm) and the emission band of the acceptor (515 nm-555 nm) before going into two corresponding photomultiplier tubes (Hamamatsu H7421). […]
Approximately 75% decrease in BRET^2 signal was measured for on-chip reaction at input flow rate of 50 μL/hr (FIG. 12).

[2] = tested on: BRET^2 based thrombin biosensor; conditions: cited from earlier work
GFP^2—MBP—RLuc2 = GFP^2—MBP—RLuc2 (Escherichia coli, UniProt P0AEX9); experiment: BRET^2 tagged MBP sugar assay, plate reader; format: binding; conditions: 0.1 mM sugar, 30 minutes at 28° C., 1 μM protein
Experimental: 1 μM purified protein was used for all the energy transfer assays (final volume of 100 μL). […] Purified protein was incubated with the sugar dissolved in double deionised water or water for 30 minutes at 28° C.
BRET ratios were calculated as the ratio of maximum acceptor emission intensity to maximum donor emission intensity.
All data analysis was carried out using GraphPad Prism (version 5 for Windows, Graphpad Software, San Diego, Calif., USA). All data will be reported as means± standard deviation (SD) unless otherwise stated in the text. Two-tailed unpaired t-tests will be performed using Graphpad prism. Statistical significance is defined as p<0.05.

[3] = target: GMR sensor (GFP^2—MBP—RLUC2) (Escherichia coli, UniProt P0AEX9); conditions: 0.1 mM sugar
Experimental: On-chip measurements were carried out with microfluidic mixers with two inlets, a passive micromixer and an integrated optical detection chamber. BRET^2 measurements were recorded by using two photo multiplier tubes one equipped with an RLuc/Clz400a emission filter (410 nm bandpass 80 nm) and the other with a GFP^2 emission filter (515 nm bandpass 30m). The optical emission was collected by using an optical fiber with 1 mm core diameter aligned with on-chip optical detection chamber through a dichroic mirror.
The preparation was then mixed on-chip with 5 μM coelenterazine 400a and the optical signal was recorded from the detection chamber. The control experiments was carried out by incubating protein preparations with water and mixing on the chip under the same conditions.
Sensitivity assays were carried out on a two input microfluidic mixing device (FIG. 8b) with a serpentine common channel of L=18 mm. The BRET reaction chamber was Ø=4 mm and H=1 mm with no mirror. A bifurcated light guide was used with a 6 mm trunk and NA=0.59. […] The incubated sample and 31.25 μM Clz400a substrate were each pumped onto the chip at input flow rates of 400 μl/hr. The trunk end of the light guide was used to collect signal from the BRET reaction chamber. […] The BRET^2 signal was measured at each concentration. […]

Compound | BRET^H ratio following thrombin cleavage (GFP^2-RG-RLuc biosensor) | decrease in BRET^H ratio following thrombin cleavage (GFP^2-RG-RLuc biosensor) | change in BRET^2 ratio (GFP/RLuc) after digestion of the sensor ([1]; 270 pM thrombin) | decrease in BRET^2 signal, on-chip reaction ([1]; 540 nM thrombin, 1 μM sensor, 12.5 μM substrate, two-inlet device, 50 μL/hr) | kcat of thrombin [2] | response of BRET biosensor to sugar (GFP^2—MBP—RLuc2) | increase in BRET^2 ratio over no sugar control, on chip [3]
thrombin | 0.75±0.04 and 0.79±0.05 | approximately 32% | approximately tenfold | Approximately 75% | ≈ 85 s^−1 |  | 
OC[C@H]1O[C@@](CO)(O[C@H]2O[C@H](CO)[C@@H](O)[C@H](O)[C@H]2O)[C@@H](O)[C@@H]1O [sucrose] |  |  |  |  |  | did not respond | 15%
